Source: PubChem BioAssay AID328 (DTP/NCI, 2004)
Several values for one entry are separate records, joined by “and”; a condition that tells them apart may be missing. Equal entries are not always repeated. Inconclusive results and toxic doses are left out.

Test system: BDF1 mice, P388 leukemia ip, median survival T/C
Test: NCI In Vivo Anticancer Drug Screen. Data for tumor model P388 Leukemia (intraperitoneal) in B6D2F1 (BDF1) mice
Settings: endpoint: median survival time, higher = longer survival
Summary of the method: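 Survival ratio, drug arm over vehicle arm, in mice with a transplanted tumour.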

[1] = dose: 50.0 mg/kg/injection, schedule: Q01DX009 (ip), vehicle: saline with Tween-80
[2] = dose: 100.0 mg/kg/injection, schedule: Q01DX009 (ip), vehicle: saline with Tween-80
[3] = dose: 50.0 mg/kg/injection, schedule: Q01DX009 (ip), vehicle: Klucel (hydroxypropylcellulose) (HPC)
[4] = dose: 12.5 mg/kg/injection, schedule: Q01DX009 (ip), vehicle: saline with Tween-80
[5] = dose: 25.0 mg/kg/injection, schedule: Q01DX009 (ip), vehicle: saline with Tween-80
[6] = dose: 12.5 mg/kg/injection, schedule: Q01DX009 (ip), vehicle: Klucel (hydroxypropylcellulose) (HPC)
[7] = dose: 25.0 mg/kg/injection, schedule: Q04DX003 (ip), vehicle: saline with Tween-80

`Cc1cc(N2CCCCC2)nc(N2CCCCC2)c1C#N` was tested, and the T/C (dose: 50.0 mg/kg/injection, schedule: Q01DX005 (ip), vehicle: saline with Tween-80) was 86 % of control, the T/C (dose: 100.0 mg/kg/injection, schedule: Q01DX005 (ip), vehicle: saline with Tween-80) was 86 % of control and the T/C (dose: 200.0 mg/kg/injection, schedule: Q01DX005 (ip), vehicle: saline with Tween-80) was 96 % of control.
With `CCOC(=O)c1c[nH]c2nc(SC)nc(NC(C)=O)c2c1=O` the T/C [1] was 102 % of control, the T/C [2] was 87 % of control and the T/C (dose: 200.0 mg/kg/injection, schedule: Q01DX009 (ip), vehicle: saline with Tween-80) was 89 % of control.
`CC1CCCC[N-]1.CC1CCCC[N-]1.[Cl][Pt+2][Cl]` (stereo not drawn) was tested, and the T/C [3] was 103 % of control and the T/C (dose: 100.0 mg/kg/injection, schedule: Q01DX009 (ip), vehicle: Klucel (hydroxypropylcellulose) (HPC)) was 97 % of control.
In the case of `CC(Br)C(=O)NC(CC(N)=O)C(=O)O` (stereo not drawn), the T/C (dose: 50.0 mg/kg/injection, schedule: Q04DX003 (ip), vehicle: saline with Tween-80) is reported as 100 % of control, the T/C (dose: 100.0 mg/kg/injection, schedule: Q04DX003 (ip), vehicle: saline with Tween-80) is reported as 90 % of control and the T/C (dose: 200.0 mg/kg/injection, schedule: Q04DX003 (ip), vehicle: saline with Tween-80) is reported as 100 % of control.
With `C=CCN(CC=C)CCN(CC)CC` the T/C (dose: 6.25 mg/kg/injection, schedule: Q01DX009 (ip), vehicle: saline) was 111 % of control, the T/C (dose: 12.5 mg/kg/injection, schedule: Q01DX009 (ip), vehicle: saline) was 101 % of control and the T/C (dose: 25.0 mg/kg/injection, schedule: Q01DX009 (ip), vehicle: saline) was 109 % of control. The T/C (dose: 50.0 mg/kg/injection, schedule: Q01DX009 (ip), vehicle: saline) was 101 % of control.
`CC1(C)CCCC(C(Cc2ccc3ccccc3n2)c2ccccc2)C1=O` (stereo not drawn) was tested, and the T/C (dose: 100.0 mg/kg/injection, schedule: Q01DX001 (ip), vehicle: saline with Tween-80) was 98 % of control, the T/C (dose: 200.0 mg/kg/injection, schedule: Q01DX001 (ip), vehicle: saline with Tween-80) was 96 % of control and the T/C (dose: 400.0 mg/kg/injection, schedule: Q01DX001 (ip), vehicle: saline with Tween-80) was 88 % of control.
`CCOc1ccc2nc3cc(N)ccc3c(N)c2c1` was tested, and the T/C (dose: 44.0 mg/kg/injection, schedule: Q04DX003 (ip), vehicle: saline) was 118 % of control, the T/C (dose: 66.0 mg/kg/injection, schedule: Q04DX003 (ip), vehicle: saline) was 118 % of control and the T/C (dose: 100.0 mg/kg/injection, schedule: Q04DX003 (ip), vehicle: saline) was 118 % of control. The T/C (dose: 200.0 mg/kg/injection, schedule: Q04DX003 (ip), vehicle: saline) was 117 % of control and the T/C (dose: 400.0 mg/kg/injection, schedule: Q04DX003 (ip), vehicle: saline) was 86 % of control.
In the case of `Cn1nc(-c2ccccc2)nc1[N+](=O)[O-]`, the T/C [4] is reported as 114 % of control, the T/C [5] is reported as 97 % of control and the T/C [1] is reported as 93 % of control. For the same compound, the T/C [2] was 99 % of control.
In the case of `COC1=C(C)C(=O)c2c(c(COC(N)=O)c3n2CC2C3N2C)C1=O` (stereo not drawn), the T/C (dose: 2.0 mg/kg/injection, schedule: Q01DX009 (ip), vehicle: saline sonified) is reported as 120 % of control.
`CCOC(=O)/C=C(\C)SC1=CC(=O)c2ccccc2C1=O` was tested, and the T/C (dose: 3.13 mg/kg/injection, schedule: Q01DX009 (ip), vehicle: saline with Tween-80) was 102 % of control, the T/C (dose: 6.25 mg/kg/injection, schedule: Q01DX009 (ip), vehicle: saline with Tween-80) was 104 % of control and the T/C [4] was 112 % of control. The T/C [5] was 104 % of control.
`c1ccc(N=NC2=NN(c3ccccc3)CS2)cc1` was tested, and the T/C [5] was 116 % of control and the T/C [1] was 116 % of control.
In the case of `O=C1C2C(c3cc4ccccc4n31)N2c1ccccc1` (stereo not drawn), the T/C (dose: 0.03 mg/kg/injection, schedule: Q01DX010 (ip), vehicle: water) is reported as 110 % of control, the T/C (dose: 0.06 mg/kg/injection, schedule: Q01DX010 (ip), vehicle: water) is reported as 94 % of control and the T/C (dose: 0.13 mg/kg/injection, schedule: Q01DX010 (ip), vehicle: water) is reported as 94 % of control. The T/C (dose: 0.25 mg/kg/injection, schedule: Q01DX010 (ip), vehicle: water) was 94 % of control, the T/C (dose: 0.5 mg/kg/injection, schedule: Q01DX010 (ip), vehicle: water) was 105 % of control and the T/C (dose: 1.0 mg/kg/injection, schedule: Q01DX010 (ip), vehicle: water) was 105 % of control. For the same compound, the T/C (dose: 2.0 mg/kg/injection, schedule: Q01DX010 (ip), vehicle: water) was 105 % of control.
`CCCCCCCCCCCCCCCOc1ccc(C)cc1` was tested, and the T/C (dose: 50.0 mg/kg/injection, schedule: Q04DX003 (ip), vehicle: saline sonified) was 90 % of control, the T/C (dose: 100.0 mg/kg/injection, schedule: Q04DX003 (ip), vehicle: saline sonified) was 100 % of control and the T/C (dose: 200.0 mg/kg/injection, schedule: Q04DX003 (ip), vehicle: saline sonified) was 90 % of control.
`O=C(O)C1CCC2(CCCCC2)CC1` was tested, and the T/C (dose: 6.25 mg/kg/injection, schedule: Q01DX009 (ip), vehicle: water) was 106 % of control, the T/C (dose: 12.5 mg/kg/injection, schedule: Q01DX009 (ip), vehicle: water) was 100 % of control and the T/C (dose: 12.5 mg/kg/injection, schedule: Q04DX003 (ip), vehicle: water) was 104 % of control. For the same compound, the T/C (dose: 25.0 mg/kg/injection, schedule: Q01DX009 (ip), vehicle: water) was 113 % of control and 117 % of control, the T/C (dose: 25.0 mg/kg/injection, schedule: Q04DX003 (ip), vehicle: water) was 94 % of control and 106 % of control and 116 % of control and the T/C (dose: 50.0 mg/kg/injection, schedule: Q01DX009 (ip), vehicle: water) was 99 % of control and 106 % of control. The T/C (dose: 100.0 mg/kg/injection, schedule: Q01DX009 (ip), vehicle: water) was 94 % of control and 100 % of control and the T/C (dose: 200.0 mg/kg/injection, schedule: Q01DX009 (ip), vehicle: water) was 88 % of control.
In the case of `CS(=O)(=O)OCCF`, the T/C (dose: 1.5 mg/kg/injection, schedule: Q01DX009 (ip), vehicle: saline with Tween-80) is reported as 100 % of control, the T/C (dose: 1.5 mg/kg/injection, schedule: Q04DX003 (ip), vehicle: saline) is reported as 104 % of control and the T/C (dose: 3.0 mg/kg/injection, schedule: Q01DX009 (ip), vehicle: saline with Tween-80) is reported as 100 % of control. For the same compound, the T/C (dose: 3.0 mg/kg/injection, schedule: Q04DX003 (ip), vehicle: saline) was 109 % of control.
With `COc1cc2c(cc1OC)-c1cc3cc(OC)c(OC)cc3c(C)[n+]1CC2` (tested in a mixture with another compound) the T/C [6] was 103 % of control, the T/C [5] was 104 % of control and the T/C [3] was 123 % of control. The T/C [1] was 113 % of control and the T/C [2] was 154 % of control.
In the case of `CN(C)N=Nc1ccccc1C(N)=O`, the T/C (dose: 22.0 mg/kg/injection, schedule: Q01DX009 (ip), vehicle: saline with Tween-80) is reported as 111 % of control, the T/C (dose: 26.6 mg/kg/injection, schedule: Q01DX009 (ip), vehicle: saline with Tween-80) is reported as 104 % of control and the T/C (dose: 33.0 mg/kg/injection, schedule: Q01DX009 (ip), vehicle: saline with Tween-80) is reported as 100 % of control. For the same compound, the T/C (dose: 40.0 mg/kg/injection, schedule: Q01DX009 (ip), vehicle: saline with Tween-80) was 91 % of control, the T/C [1] was 111 % of control and the T/C (dose: 60.0 mg/kg/injection, schedule: Q01DX009 (ip), vehicle: saline with Tween-80) was 120 % of control. For the same compound, the T/C (dose: 75.0 mg/kg/injection, schedule: Q01DX009 (ip), vehicle: saline with Tween-80) was 161 % of control.
`N#Cc1nc2nc(C(F)(F)F)[nH]c2nc1C#N` was tested, and the T/C (dose: 6.25 mg/kg/injection, schedule: Q04DX003 (ip), vehicle: saline with Tween-80) was 100 % of control, the T/C [4] was 95 % of control and the T/C (dose: 12.5 mg/kg/injection, schedule: Q04DX003 (ip), vehicle: saline with Tween-80) was 100 % of control. For the same compound, the T/C [7] was 87 % of control and 90 % of control.
With `CN(c1ccccc1)P(=O)(N1CC1)N1CC1` the T/C [7] was 172 % of control and the T/C (dose: 37.5 mg/kg/injection, schedule: Q04DX003 (ip), vehicle: saline with Tween-80) was 250 % of control.
In the case of `C=C1CC[N+]2(CC(C)C)CCCC12` (stereo not drawn), the T/C (dose: 12.5 mg/kg/injection, schedule: Q04DX003 (ip), vehicle: saline) is reported as 107 % of control, the T/C (dose: 25.0 mg/kg/injection, schedule: Q04DX003 (ip), vehicle: saline) is reported as 102 % of control and the T/C (dose: 50.0 mg/kg/injection, schedule: Q04DX003 (ip), vehicle: saline) is reported as 106 % of control.
`O=C(Cc1ccccc1)OCCc1ccccc1` was tested, and the T/C [6] was 109 % of control, the T/C (dose: 25.0 mg/kg/injection, schedule: Q01DX009 (ip), vehicle: Klucel (hydroxypropylcellulose) (HPC)) was 109 % of control and the T/C [3] was 95 % of control. The T/C (dose: 100.0 mg/kg/injection, schedule: Q04DX003 (ip), vehicle: Klucel (hydroxypropylcellulose) (HPC)) was 109 % of control, the T/C (dose: 200.0 mg/kg/injection, schedule: Q04DX003 (ip), vehicle: Klucel (hydroxypropylcellulose) (HPC)) was 100 % of control and the T/C (dose: 400.0 mg/kg/injection, schedule: Q04DX003 (ip), vehicle: Klucel (hydroxypropylcellulose) (HPC)) was 100 % of control.
